According to patent US20030054053A1, “Methods and compositions for inhibiting the proliferation of prostate cancer cells” (priority 2001, published 2003):

Assays:
Format in all cases: cell-based, Human
hK2 = hK2 level in spent media of LNCaP cells (Mayo's hK2 assay); details: 1 nM Mib, five days
Protocol: (§1) Human prostate cancer cell line, LNCaP (American Type Culture Collection (ATCC), Manassas, Va.), was grown in RPMI 1640 medium (Mediatech, Herndon, Va.) supplemented with 5% fetal bovine serum (FBS) and 5% CO2 at 37° C. until reaching approximately 50-70% confluence. The media were changed to serum-free RPMI 1640 at 24 hours prior to experiments being performed to deplete undesired steroids. […] Equivalent amounts of solvent were added to control cells.
(§2) Five days later, cell proliferation was measured by MTS assay kit (Promega, Madison, Wis.), and PSA and hK2 levels in spent media were determined by the Tandem-E PSA kit (Hybritech Inc., San Diego, Calif.) or Mayo's hK2 assay (Zhang et al., 1999, Endocrin., 140:1665-71).

LNCaP cells = assay: LNCaP cell proliferation, MTS assay
Protocol: as §1, §2

FKBP51 = FKBP51 protein level, Western blot in LNCaP cells; details: 1 nM Mib, 24 hrs
Protocol: Cells were harvested and the whole cell lysate and nuclear extract were prepared as described (Zhu et al., 1999, Endocrin., 140:5451-4). Western blotting analysis was performed according to the protocol described (Id). A mouse antibody against human FKBP51 (1:5,000 dilution) (a gift from Dr. David Toft, Mayo Clinic), the human androgen receptor (1:1000 or 1:2000 dilution) (Pharmingen, San Diego, Calif.) or human Sp1 (1:2000 dilution) (Santa Cruz, Santa Cruz, Calif.) was used as the primary antibody. Ponceau S staining was used for monitoring protein loading and transfer efficiency (Mitchell et al., 1999, Cancer Res., 59:5892-5).

PSA = PSA level in spent media of LNCaP cells (Tandem-E PSA kit); details: 1 nM Mib, five days
Protocol: as §1, §2

androgen receptor = assay: Immunocytochemical staining, whole cell androgen receptor in LNCaP cells; details: Mib alone versus absence of androgens
Protocol: Twenty-four hrs later, LNCaP cell slides were washed with 1×PBS, and fixed in acetone at −20° C. for 10 min. The air-dried slides were treated with EtOH/chloroform (1:1) mixture for 5 min to permeate the cell membrane and air-dried again. The slides were washed with 1×TBST and stained with a monoclonal antibody against the human androgen receptor (Pharmingen) using a DAKO kit (DAKO). The androgen receptor staining was observed using microscopy (Zeiss, Thornwood, N.Y.). The density of androgen receptor in a nucleus (or a whole cell) and the area of the nucleus or the whole cell were quantified by KS400 software (Zeiss) provided by the Mayo Molecular Core Facility. The androgen receptor protein level in a nucleus or a whole cell was calculated by multiplication of the density of androgen receptor in the nucleus or the whole cell with the area of the nucleus or the whole cell, respectively. In each sample, 20 to 25 cells were analyzed. All results were analyzed by 2-tailed Student's t-test. A p<0.05 was accepted as the level of significance.

| SMILES | hK2 accumulation stimulated by androgens (hK2) | androgen-stimulated cell growth (LNCaP cells; 1 nM Mib, five days, MTS) | androgen-stimulated cell growth at 75 μM (LNCaP cells; 1 nM Mib, silibin 75 μM) | cell proliferation in the absence of Mib (LNCaP cells; no Mib, five days, MTS) | androgen-induced FKBP51 protein level (FKBP51) | PSA accumulation stimulated by androgens (PSA) | LNCaP cell growth in the presence of Mib (LNCaP cells; 1 nM Mib alone) | androgen receptor level (androgen receptor) |
| --- | --- | --- | --- | --- | --- | --- | --- | --- |
| COc1cc(C2Oc3cc([C@H]4Oc5cc(O)cc(O)c5C(=O)[C@@H]4O)ccc3OC2CO)ccc1O (some centres unmarked) [silibin] | inhibited | inhibited | fully suppressed | neither silymarin or silibin affected | reduced | inhibited |  |  |
| C[C@@H]1CC2=CC(=O)CC[C@@H]2[C@H]2CC[C@@]3(C)[C@@H](CC[C@]3(C)O)[C@@H]21 [Mib, mibolerone, reference compound] |  |  |  |  |  |  | increased significantly | increased the androgen receptor level significantly |
